According to the supplement of paper PMC10307832:

How the values were obtained:
Assay in all cases: relative viability (nuclei count vs DMSO), 5 days (fraction); higher = more cells survive
[1] = compound: CCN1CCN(c2ccc(Nc3cc(N(C)C(=O)Nc4c(Cl)c(OC)cc(OC)c4Cl)ncn3)cc2)CC1 [BGJ398] + CS(=O)(=O)CCNCc1ccc(-c2ccc3ncnc(Nc4ccc(OCc5cccc(F)c5)c(Cl)c4)c3c2)o1 [Lapatinib] (partner 2 µM)
In short: (§1)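 Relative viability was taken as the ratio of nuclei in treated wells to nuclei in vehicle wells. Lung cancer cell lines in 1536-well plates received compounds by pin tool one day after seeding, either one drug alone or a fixed anchor-drug dose plus five library-drug doses (not always all listed) in √10 steps. Nuclei were counted on 4× images after 5 days of treatment, and values are medians of duplicate plates.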

[2] = compound: C1=CC2=NC=CN=C2C=C1/C=C/3\C(=O)NC(=O)S3 + CS(=O)(=O)N1CCN(Cc2cc3nc(-c4cccc5[nH]ncc45)nc(N4CCOCC4)c3s2)CC1 [Pictilisib] (partner 1 µM)
In short: as §1

[3] = compound: CCN1CCN(c2ccc(Nc3cc(N(C)C(=O)Nc4c(Cl)c(OC)cc(OC)c4Cl)ncn3)cc2)CC1 [BGJ398] + Cc1nc(Nc2ncc(C(=O)Nc3c(C)cccc3Cl)s2)cc(N2CCN(CCO)CC2)n1 [Dasatinib] (partner 0.075 µM)
In short: as §1

[4] = compound: C1=CC2=NC=CN=C2C=C1/C=C/3\C(=O)NC(=O)S3 + COc1cccc2cc(-c3nc([C@H]4CC[C@H](C(=O)O)CC4)n4ncnc(N)c34)[nH]c12 [OSI-027] (partner 0.5 µM)
In short: as §1

Cell Line	relative viability ([1]; first compound 0.01 µM)	relative viability ([1]; first compound 0.1 µM)	relative viability ([1]; first compound 0.3162 µM)	relative viability ([1]; first compound 1 µM)	relative viability ([2]; first compound 0.02 µM)	relative viability ([2]; first compound 0.06325 µM)	relative viability ([2]; first compound 0.2 µM)	relative viability ([2]; first compound 0.6325 µM)	relative viability ([2]; first compound 2 µM)	relative viability ([3]; first compound 0.01 µM)	relative viability ([3]; first compound 0.03162 µM)	relative viability ([3]; first compound 0.1 µM)	relative viability ([3]; first compound 0.3162 µM)	relative viability ([3]; first compound 1 µM)	relative viability ([4]; first compound 0.02 µM)	relative viability ([4]; first compound 0.06325 µM)	relative viability ([4]; first compound 0.2 µM)	relative viability ([4]; first compound 0.6325 µM)	relative viability ([4]; first compound 2 µM)	relative viability ([1]; first compound 0.03162 µM)
HCC-827	0.244	0.163	0.173	0.2	1.13	0.938	0.996	0.845	0.969	0.223	0.123	0.329	0.249	0.325	0.771	0.725	0.765	0.741	0.779	
SK-LU-1	0.878	0.979	0.702	0.945	0.703	0.695	0.583	0.577	0.506	0.173	0.19	0.142	0.153	0.13	0.371	0.358	0.332	0.396	0.207	1.07
NCI-H1975	0.915	0.859	0.899	0.785	0.268	0.298	0.314	0.246	0.226	0.359	0.449	0.378	0.34	0.316	0.708	0.805	0.808	0.619	0.417	0.903
NCI-H1651	0.796	0.962	0.693	0.676	0.547	0.574	0.598	0.462	0.472	0.48	0.416	0.482	0.256	0.333	0.711	0.723	0.794	0.658	0.527	0.897
LCLC-97TM1	0.525	0.901	0.979	0.868	0.186	0.185	0.21	0.141	0.178	0.671	0.92	0.773	0.646	0.921	0.556	0.522	0.436	0.461	0.145	0.745
NCI-H727	1.05	1.22	0.789	0.648	0.432	0.394	0.367	0.328	0.198	0.462	0.337	0.316	0.384	0.447	0.624	0.598	0.686	0.575	0.343	0.799
NCI-H1355	0.936	1.01	0.95	0.644	0.274	0.411	0.499	0.459	0.364	0.658	0.713	0.74	0.735	0.507	0.383	0.338	0.402	0.396	0.258	1.05
HOP-62	0.965	1.18	1.02	1.04	0.409	0.92	0.695	0.861	0.662	0.745	0.656	0.678	0.733	0.57	0.742	1.02	0.833	0.827	0.607	1.16
NCI-H2085	0.744	0.802	0.677	0.663	0.417	0.394	0.533	0.455	0.486	0.272	0.236	0.215	0.279	0.229	0.75	0.847	0.82	0.827	0.635	0.784
